The values below are quoted from earlier work in patent US20080318886A1, “Methods of Increasing Cancer Sensitivity to Chemotherapeutic Agents Using Chimeric ISF35” (priority 2006, published 2008).

The data set deals with CLL. The note with it: CLL patients, first line treatment.

With `Nc1nc(F)nc2c1ncn2[C@@H]1O[C@H](CO)[C@@H](O)[C@@H]1O` [Fludaribine], the overall response rate is around 70%.
